# Target: T1, human TLR9 (Homo sapiens, UniProt Q9NR96)
# T1 sequence (Q9NR96 26-1032): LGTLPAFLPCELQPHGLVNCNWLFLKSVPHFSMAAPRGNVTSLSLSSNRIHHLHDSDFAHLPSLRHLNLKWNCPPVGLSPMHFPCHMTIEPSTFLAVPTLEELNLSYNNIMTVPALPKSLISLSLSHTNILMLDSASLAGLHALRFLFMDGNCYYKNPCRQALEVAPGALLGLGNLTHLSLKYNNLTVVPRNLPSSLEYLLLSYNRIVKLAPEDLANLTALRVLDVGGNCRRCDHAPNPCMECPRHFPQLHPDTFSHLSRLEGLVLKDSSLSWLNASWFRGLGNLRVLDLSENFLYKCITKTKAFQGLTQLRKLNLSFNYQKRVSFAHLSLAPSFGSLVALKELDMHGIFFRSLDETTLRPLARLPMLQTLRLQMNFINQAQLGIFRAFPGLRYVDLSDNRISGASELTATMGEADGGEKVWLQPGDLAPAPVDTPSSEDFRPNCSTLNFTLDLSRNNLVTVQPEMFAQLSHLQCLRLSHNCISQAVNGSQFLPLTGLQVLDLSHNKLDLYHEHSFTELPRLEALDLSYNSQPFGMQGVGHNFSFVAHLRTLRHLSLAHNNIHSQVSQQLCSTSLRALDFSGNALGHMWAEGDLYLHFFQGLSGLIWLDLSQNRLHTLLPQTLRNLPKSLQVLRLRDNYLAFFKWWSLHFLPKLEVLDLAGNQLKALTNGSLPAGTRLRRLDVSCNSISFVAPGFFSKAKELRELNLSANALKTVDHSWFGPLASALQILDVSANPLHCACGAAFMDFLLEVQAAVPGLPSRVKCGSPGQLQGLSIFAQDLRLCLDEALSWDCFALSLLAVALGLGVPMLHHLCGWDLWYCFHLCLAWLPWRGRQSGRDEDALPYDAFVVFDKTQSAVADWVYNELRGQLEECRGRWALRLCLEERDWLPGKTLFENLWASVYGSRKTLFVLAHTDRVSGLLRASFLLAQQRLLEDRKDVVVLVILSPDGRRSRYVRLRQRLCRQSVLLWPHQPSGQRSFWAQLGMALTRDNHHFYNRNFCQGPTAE
# Experiment: HEK293-Blue-hTLR-9 cells assay (SEAP reporter, ODN2006 stimulation)
# Assay type: cell-based
# Conditions: HEK293-Blue-hTLR9 cells, ODN2006, 20 hrs
# Description: The following tests were carried out in order to determine the activity of the compounds of this invention in HEK293-Blue-hTLR-7/8/9 cells assay.
# HEK293-Blue-hTLR-9 Cells Assay:
# A stable HEK293-Blue-hTLR-9 cell line was purchased from InvivoGen (Cat. #: hkb-htlr9, San Diego, Calif., USA). These cells were originally designed for studying the stimulation of human TLR9 by monitoring the activation of NF-κB. A SEAP (secreted embryonic alkaline phosphatase) reporter gene was placed under the control of the IFN-β minimal promoter fused to five NF-κB and AP-1-binding sites. The SEAP was induced by activating NF-κB and AP-1 via stimulating HEK-Blue hTLR9 cells with TLR9 ligands. Therefore the reporter expression was declined by TLR9 antagonist under the stimulation of a ligand, such as ODN2006 (Cat. #: tlr1-2006-1, Invivogen, San Diego, Calif., USA), for incubation of 20 hrs. The cell culture supernatant SEAP reporter activity was determined using QUANTI-Blue™ kit (Cat. #: rep-qb1, Invivogen, San Diego, Calif., USA) at a wavelength of 640 nm, a detection medium that turns purple or blue in the presence of alkaline phosphatase.
# HEK293-Blue-hTLR9 cells were incubated at a density of 250,000˜450,000 cells/mL in a volume of 170 μL in a 96-well plate in Dulbecco's Modified Eagle's medium (DMEM) containing 4.5 g/L glucose, 50 U/mL penicillin, […], 2 mM L-glutamine, 10% (v/v) heat-inactivated fetal bovine serum with addition of 20 μL test compound in a serial dilution in the presence of final DMSO at 1% and 10 μL of 20 uM ODN2006 in above DMEM, perform incubation under 37° C. in a CO2 incubator for 20 hrs. Then 20 μL of the supernatant from each well was incubated with 180 μL Quanti-blue substrate solution at 37° C. for 2 hrs and the absorbance was read at 620˜655 nm using a spectrophotometer. The signalling pathway that TLR9 activation leads to downstream NF-κB activation has been widely accepted, and therefore similar reporter assay was modified for evaluating TLR9 antagonist.
row,Structure (SMILES),IC50
1,"C[C@H]1C[C@@H](NCc2cnc(N3CCN[C@@H](C)C3)nc2)CN(c2ccc(C#N)c3ncccc23)C1 [Example 29, 5-[(3S,5R)-3-methyl-5-[[2-[(3S)-3-methylpiperazin-1-yl]pyrimidin-5-yl]methylamino]-1-piperidyl]quinoline-8-carbonitrile]",32 nM
2,"C[C@H]1C[C@@H](NCc2ccc3c(n2)CCNC3)CN(c2ccc(C#N)c3ncccc23)C1 [Example 30, 5-[(3S,5R)-3-methyl-5-(5,6,7,8-tetrahydro-1,6-naphthyridin-2-ylmethylamino)-1-piperidyl]quinoline-8-carbonitrile]",33 nM
3,"C[C@H]1C[C@@H](NCc2cnc(N3CCNCC3)cn2)CN(c2ccc(C#N)c3ncccc23)C1 [Example 31, 5-[(3S,5R)-3-methyl-5-[(5-piperazin-1-ylpyrazin-2-yl)methylamino]-1-piperidyl]quinoline-8-carbonitrile]",47 nM
4,"C[C@H]1C[C@@H](NCc2ccccc2)CN(c2ccc(C#N)c3ncccc23)C1 [Example R1, reference compound]",1870 nM
5,"C[C@H]1C[C@@H](N2Cc3ccccc3C2)CN(c2ccc(C#N)c3ncccc23)C1 [Example R2, reference compound]",8660 nM
